Legend:
J774 cells = assay: BODIPY-cholesterol efflux from J774 macrophages to apoA1; type: cell-based
Experimental: Cholesterol Efflux. Plated J774 cells (RRID:CVCL 0358) purchased from ATCC and used without further validation were incubated in serum-free medium containing 0.5 μM BODIPY-cholesterol (Cayman) for 24 hours. Medium was replaced with fresh serum-free medium containing test compound for 24 hours. For experiments with probucol (Sigma), it was added at 20 μM for the final 2 hours with test compound. Then, fresh serum-free medium containing 20 μg/mL purified recombinant apolipoprotein A1 (Sigma) was added for 6 hours. Acceptor-containing medium was transferred to a new plate, while cells were lysed with RIPA buffer. Fluorescence (Ex480/Em530) was measured in both components, with data reported as % efflux=(medium fluorescence)/(medium fluorescence+lysate fluorescence) normalized to background efflux (% efflux in DMSO-treated cells without exogenous apoA1).

C57Bl/6 control mice = assay: C57Bl/6 control mice, daily p.o. CL2-57 for one week; type: in vivo, mouse
PPARβ/δ = biological target: T1, PPARβ/δ (Homo sapiens, UniProt Q03181); assay: PPARβ/δ NHR screen, antagonist mode; conditions: cell-based β-gal reporter assay, 10 μM
T1 sequence (Q03181 1-441): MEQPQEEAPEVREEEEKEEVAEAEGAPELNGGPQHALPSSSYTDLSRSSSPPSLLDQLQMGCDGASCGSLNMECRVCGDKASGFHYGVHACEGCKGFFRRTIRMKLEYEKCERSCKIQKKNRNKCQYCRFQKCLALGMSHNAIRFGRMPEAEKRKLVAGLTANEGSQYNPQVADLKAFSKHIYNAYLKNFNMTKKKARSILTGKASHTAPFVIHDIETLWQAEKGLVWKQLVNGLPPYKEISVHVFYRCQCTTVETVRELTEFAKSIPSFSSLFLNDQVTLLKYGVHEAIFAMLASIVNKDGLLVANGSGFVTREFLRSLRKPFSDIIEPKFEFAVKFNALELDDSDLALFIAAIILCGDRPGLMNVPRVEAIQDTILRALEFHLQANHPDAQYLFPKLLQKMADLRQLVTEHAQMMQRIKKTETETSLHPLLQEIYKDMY
Experimental: Receptor Binding Assays. Nuclear hormone (NHR) assays were performed by DiscoverX (Fremont, CA) on their NHR-Scan platform of cell-based protein-protein interaction assays. This platform uses a […] reporter that activates upon interaction of full-length receptor protein with steroid coactivator receptor peptides. In agonist mode, activity of CL2-57 at 10 μM was compared to maximal activity of published positive control agonists; in antagonist mode, reduction in activity with 10 μM CL2-57 from that observed at […] of published agonists was quantified.

ABCA1 = assay: ABCA1-linked luciferase assay in HepG2 cells; type: cell-based
Experimental: Luciferase. HepG2 cells (RRID:CVCL 0027) purchased from ATCC and used without further validation were stably transfected with pGreenFire1-LXRE-in-ABCA1 plasmid, which contains the ABCA1 promoter sequence linked to a luciferase response element, then selected over multiple generations with puromycin and frozen in liquid N2. For assays, transfected cells were plated 24 hours in medium (Gibco) containing charcoal-stripped serum (Gemini), followed by a 24-hour treatment. Cells were lysed with passive lysis buffer (Promega), frozen at −80° C. for 15 minutes, and shaken at room temperature for 2 hours before quantification with luciferase assay system (Promega) on a Synergy Neo2 plate reader.

Hepatic lipogenesis (C57Bl/6 control mice; 10 mg/kg daily p.o. one week): low-magnitude increases
Plasma TG or cholesterol compared to vehicle controls (C57Bl/6 control mice; C57Bl/6 mice, one week daily p.o.): no changes
Functional mode at PPARβ/δ (PPARβ/δ): weak antagonist
EC50 (ABCA1; Homo sapiens, HepG2 liver cells, read-out: EC50, ABCA1-linked luciferase activity): 1800 nM
Structure (SMILES): CCOC(=O)c1cccc(NC(=O)c2sc(Cl)cc2S(=O)(=O)N(C)c2ccc(OCC)c(OCC)c2)c1 [CL2-57, ethyl 3-(5-chloro-3-(N-(3,4-diethoxyphenyl)-N-methylsulfamoyl)thiophene-2-carboxamido) benzoate]
Cholesterol Efflux - J774, activity of CL2-57 (10 μM) as % of T0901317 (1 μM) (J774 cells; 10 μM): 183%
Cholesterol efflux from macrophages to apoA1 (J774 cells; fluorescent BODIPY-tagged cholesterol): dose-dependently increased
Increased cholesterol efflux with ABCA1 inhibitor probucol (J774 cells; probucol 20 μM for the final 2 hours): blocked
ABCA1 luciferase, activity of CL2-57 (10 μM) as % of T0901317 (1 μM) (ABCA1; 10 μM): 127%
Emax, ABCA1-linked luciferase activity (ABCA1; HepG2 liver cells): 250 % of vehicle
ABCA1-linked luminescence with CL2-57 titration (ABCA1; in the presence of RXR agonist bexarotene, increased from 2.5-fold): 4.5 fold
ABCA1-linked luminescence with CL2-57 titration (ABCA1; in the presence of pan-LXR agonist T0901317): no increase

Reference: patent US20240199572A1, “COMPOUNDS, COMPOSITIONS, AND METHODS FOR TREATING TYPE 2 DIABETES AND DEMENTIA” (THE BOARD OF TRUSTEES OF THE UNIVERSITY OF ILLINOIS, priority 2021, published 2024)
